Test system: plasma ALP (80-90% containing TNAP)
Experiment: Inhibitory test of plasma TNAP activity in B6 mouse
Assay type: in vivo
Conditions: oral, average 0-6 h after administration
Description: After blood sampling from the tail vein using a heparin-treated hematocrit capillary tube (EM Meister Hematocrit Capillary Tube, AS ONE Corp.) (as the sample before compound administration), each test compound suspended in a 0.5% methylcellulose solution (powder purchased from Wako Pure Chemical Industries, Ltd. was adjusted to 0.5% with Otsuka distilled water) was administered orally to the mouse. 1, 2, 4, 6, and 24 hours after the administration, blood was collected from the tail vein using a heparin-treated hematocrit capillary tube to obtain a plasma sample. The plasma sample was added to an assay buffer (1 M Tris, 1 M MgCl2, 20 mM ZnCl2, and water, pH 7.5), and the mixture was left standing for 5 minutes. Then, the absorbance at 405 nm was measured and used as a blank. The substrate pNPP was added to the plasma sample and incubated at room temperature for 180 minutes. Then, the absorbance (ABS: 405 nm) was measured using a microplate reader (model plus 384, Molecular Devices, LLC), and the concentration of produced p-nitrophenol was calculated. The blank was subtracted from all measurement values to calculate TNAP activity at each time point with the TNAP activity of the sample before compound administration defined as 100%. The pharmaceutical effect of the test compound was evaluated by the average inhibition of plasma ALP (80-90% containing TNAP) activity for 6 hours from 0 hour to 6 hour after the administration of the test compound. It was calculated according to the following expression: 100−((plasma ALP activity at 0 hr+plasma ALP activity at 1 hr)*½+(plasma ALP activity at 1 hr+plasma ALP activity at 2 hr)*½+(plasma ALP activity at 2 hr+plasma ALP activity at 4 hr)*2/2+(plasma ALP activity at 4 hr+plasma ALP activity at 6 hr)*2/2)/6 The results are shown in Table 2.

SMILES | Plasma ALP inhibition (6 h ave. inhibition %) (dose 0.3 mg/kg) [%] | Plasma ALP inhibition (6 h ave. inhibition %) (dose 1 mg/kg) [%]
O=C1c2cc([N-]S(=O)(=O)c3cc(Cl)ccc3OC(F)(F)F)cnc2OC[C@H]2[C@@H](O)CCN12.[K+] [Example 43, Potassium {[5-chloro-2-(trifluoromethoxy)phenyl]sulfonyl}[(9S,9aS)-9-hydroxy-5-oxo-8,9,9a,10-tetrahydro-5H,7H-pyrido[3,2-f]pyrrolo[2,1-c][1,4]oxazepin-3-yl]azanide] | 65.5 | 
COc1ccc(Cl)cc1S(=O)(=O)[N-]c1cnc2c(c1)-c1nnc(C)n1CCO2.[K+] [Example 2, Potassium [(5-chloro-2-methoxyphenyl)sulfonyl](3-methyl-5,6-dihydropyrido[3,2-f][1,2,4]triazolo[4,3-d][1,4]oxazepin-10-yl)azanide] |  | 34.4
CCc1nnc2n1CCOc1ncc([N-]S(=O)(=O)c3cc(Cl)ccc3OC)cc1-2.[K+] [Example 4, Potassium [(5-chloro-2-methoxyphenyl)sulfonyl](3-ethyl-5,6-dihydropyrido[3,2-f][1,2,4]triazolo[4,3-d][1,4]oxazepin-10-yl)azanide] |  | 40.7
CNC(=O)O[C@H]1C[C@@H]2COc3ncc([N-]S(=O)(=O)c4cc(Cl)ccc4OC)cc3C(=O)N2C1.[K+] [Example 49, Potassium [(5-chloro-2-methoxyphenyl)sulfonyl]{(8S,9aR)-8-[(methylcarbamoyl)oxy]-5-oxo-8,9,9a,10-tetrahydro-5H,7H-pyrido[3,2-f]pyrrolo[2,1-c][1,4]oxazepin-3-yl}azanide] |  | 52.8
COC(=O)N[C@@H]1C[C@@H]2COc3ncc([N-]S(=O)(=O)c4cc(Cl)ccc4OC)cc3C(=O)N2C1.[K+] [Example 51, Potassium [(5-chloro-2-methoxyphenyl)sulfonyl]{(8R,9aR)-8-[(methoxycarbonyl)amino]-5-oxo-8,9,9a,10-tetrahydro-5H, 7H-pyrido[3,2-f]pyrrolo[2,1-c][1,4]oxazepin-3-yl}azanide] |  | 59.7

From patent publication US11046710B2, “Sulfonamide compounds” (DAIICHI SANKYO COMPANY, LIMITED, priority 2016, dated 2021)
